Assay results: PubChem BioAssay AID248 (DTP/NCI, 2004)
Where “and” joins values, the source holds several entries; their conditions need not be identical. Identical values can stand only once. Inconclusive results and toxic doses are left out. No stated cut-off is given here; in the data, active means T/C of 150% or more; inactive means T/C below 125%.

Tested on: L1210 leukemia ip in BDF1 mice, survival T/C
Assay: NCI In Vivo Anticancer Drug Screen. Data for tumor model L1210 Leukemia (intraperitoneal) in B6D2F1 (BDF1) mice
Details: endpoint: mean survival time, higher = longer survival
How it was run: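 Transplantable tumor model; survival measured in treated vs vehicle control mice. Value = treated/control.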

[1] = dose: 100.0 mg/kg/injection, schedule: Q04DX003 (ip), vehicle: Klucel (hydroxypropylcellulose) (HPC)
[2] = dose: 200.0 mg/kg/injection, schedule: Q04DX003 (ip), vehicle: Klucel (hydroxypropylcellulose) (HPC)
[3] = dose: 400.0 mg/kg/injection, schedule: Q04DX003 (ip), vehicle: Klucel (hydroxypropylcellulose) (HPC)
[4] = dose: 50.0 mg/kg/injection, schedule: Q01DX009 (ip), vehicle: Klucel (hydroxypropylcellulose) (HPC)
[5] = dose: 100.0 mg/kg/injection, schedule: Q01DX009 (ip), vehicle: Klucel (hydroxypropylcellulose) (HPC)
[6] = dose: 200.0 mg/kg/injection, schedule: Q01DX009 (ip), vehicle: Klucel (hydroxypropylcellulose) (HPC)
[7] = dose: 400.0 mg/kg/injection, schedule: Q01DX009 (ip), vehicle: Klucel (hydroxypropylcellulose) (HPC)
[8] = dose: 100.0 mg/kg/injection, schedule: Q01DX001 (ip), vehicle: Klucel (hydroxypropylcellulose) (HPC)
[9] = dose: 200.0 mg/kg/injection, schedule: Q01DX001 (ip), vehicle: Klucel (hydroxypropylcellulose) (HPC)
[10] = dose: 400.0 mg/kg/injection, schedule: Q01DX001 (ip), vehicle: Klucel (hydroxypropylcellulose) (HPC)
[11] = dose: 100.0 mg/kg/injection, schedule: Q04DX003 (ip), vehicle: saline with Tween-80
[12] = dose: 200.0 mg/kg/injection, schedule: Q04DX003 (ip), vehicle: saline with Tween-80
[13] = dose: 400.0 mg/kg/injection, schedule: Q04DX003 (ip), vehicle: saline with Tween-80
[14] = dose: 100.0 mg/kg/injection, schedule: Q01DX001 (ip), vehicle: saline
[15] = dose: 200.0 mg/kg/injection, schedule: Q01DX001 (ip), vehicle: saline

Measured: T/C

O=C1C=CC(=O)N1c1ccc([N+](=O)[O-])cc1
inactive: dose: 0.78 mg/kg/injection, schedule: Q04DX003 (ip), vehicle: Klucel (hydroxypropylcellulose) (HPC) 107 % of control | dose: 1.56 mg/kg/injection, schedule: Q01DX009 (ip), vehicle: Klucel (hydroxypropylcellulose) (HPC) 97 % of control | dose: 1.56 mg/kg/injection, schedule: Q04DX003 (ip), vehicle: Klucel (hydroxypropylcellulose) (HPC) 93 % of control | dose: 3.12 mg/kg/injection, schedule: Q01DX009 (ip), vehicle: Klucel (hydroxypropylcellulose) (HPC) 92 % of control | dose: 3.12 mg/kg/injection, schedule: Q04DX003 (ip), vehicle: Klucel (hydroxypropylcellulose) (HPC) 91 % of control | dose: 6.25 mg/kg/injection, schedule: Q01DX009 (ip), vehicle: Klucel (hydroxypropylcellulose) (HPC) 92 % of control | dose: 6.25 mg/kg/injection, schedule: Q04DX003 (ip), vehicle: Klucel (hydroxypropylcellulose) (HPC) 92 % of control | dose: 9.2 mg/kg/injection, schedule: Q01DX009 (ip), vehicle: Klucel (hydroxypropylcellulose) (HPC) 92 % of control | dose: 14.0 mg/kg/injection, schedule: Q01DX009 (ip), vehicle: Klucel (hydroxypropylcellulose) (HPC) 90 % of control | dose: 21.0 mg/kg/injection, schedule: Q01DX009 (ip), vehicle: Klucel (hydroxypropylcellulose) (HPC) 95 % of control

CCOC(=O)C1C2OC(=O)C(C(=O)C2C(C2CC=CCC2)N(CCCl)CCCl)C1c1ccc(OC(C)=O)cc1 (stereo not drawn)
inactive: [1] 101 % of control | [2] 97 % of control | [3] 98 % of control

O=C(CCN(Cc1ccccc1)Cc1ccccc1)c1csc2ccccc12
inactive: dose: 100.0 mg/kg/injection, schedule: Q01DX001 (ip), vehicle: carboxymethylcellulose (CMC) 96 % of control | dose: 200.0 mg/kg/injection, schedule: Q01DX001 (ip), vehicle: carboxymethylcellulose (CMC) 89 % of control | dose: 400.0 mg/kg/injection, schedule: Q01DX001 (ip), vehicle: carboxymethylcellulose (CMC) 94 % of control

O=C1c2ccccc2C(=O)N1c1cccc([N+](=O)[O-])c1
inactive: [4] 114 % of control | [5] 90 % of control | [6] 114 % of control

C/C=C/C(C1=C(O)c2ccccc2C(=O)C1=O)C1=C(O)c2ccccc2C(=O)C1=O
inactive: dose: 75.0 mg/kg/injection, schedule: Q01DX001 (ip), vehicle: carboxymethylcellulose (CMC) 100 % of control | dose: 150.0 mg/kg/injection, schedule: Q01DX001 (ip), vehicle: carboxymethylcellulose (CMC) 118 % of control | dose: 300.0 mg/kg/injection, schedule: Q01DX001 (ip), vehicle: carboxymethylcellulose (CMC) 108 % of control

O=C(NCCBr)c1cccc2ccccc12
inactive: [5] 106 % of control | [6] 97 % of control | [7] 95 % of control

Cc1ccc(C(C)C)c(OC(=O)Nc2ccc(Cl)cc2)c1
inactive: [8] 95 % of control | [5] 96 % of control and 103 % of control | dose: 100.0 mg/kg/injection, schedule: Q04DX002 (ip), vehicle: Klucel (hydroxypropylcellulose) (HPC) 98 % of control and 102 % of control | [1] 100 % of control and 120 % of control | [9] 88 % of control | [6] 98 % of control and 100 % of control | dose: 200.0 mg/kg/injection, schedule: Q04DX002 (ip), vehicle: Klucel (hydroxypropylcellulose) (HPC) 102 % of control | [2] 104 % of control and 124 % of control | [10] 88 % of control | [7] 96 % of control and 91 % of control | dose: 400.0 mg/kg/injection, schedule: Q04DX002 (ip), vehicle: Klucel (hydroxypropylcellulose) (HPC) 94 % of control and 98 % of control | [3] 96 % of control

CC1(C)CCO/C(=C\C(=O)N2Cc3cc4ccccc4nc3C2)N1
inactive: [8] 88 % of control | [9] 86 % of control | [10] 90 % of control

CCOC(CN)C(Cl)(Cl)Cl (stereo not drawn)
inactive: dose: 50.0 mg/kg/injection, schedule: Q01DX009 (ip), vehicle: saline 98 % of control | dose: 100.0 mg/kg/injection, schedule: Q01DX009 (ip), vehicle: saline 98 % of control and 104 % of control | dose: 200.0 mg/kg/injection, schedule: Q01DX009 (ip), vehicle: saline 101 % of control and 116 % of control

Cc1n(-c2ccccc2)c2c([n+]1Cc1ccc([N+](=O)[O-])cc1)C(=O)c1ccccc1C2=O
inactive: dose: 5.0 mg/kg/injection, schedule: Q01DX001 (ip), vehicle: other 106 % of control | dose: 10.0 mg/kg/injection, schedule: Q01DX001 (ip), vehicle: other 101 % of control | dose: 20.0 mg/kg/injection, schedule: Q01DX001 (ip), vehicle: other 93 % of control | dose: 40.0 mg/kg/injection, schedule: Q01DX001 (ip), vehicle: other 95 % of control

Nc1cnc(N)nc1
inactive: dose: 75.0 mg/kg/injection, schedule: Q01DX Z (ip), vehicle: saline 103 % of control | dose: 150.0 mg/kg/injection, schedule: Q01DX Z (ip), vehicle: saline 111 % of control

C=C1C(=O)OC2CC3(C)C(OC(C)=O)CC=C(C)C3C(OC(C)=O)C12 (stereo not drawn) (tested in a mixture with another compound)
inactive: dose: 75.0 mg/kg/injection, schedule: Q01DX001 (ip), vehicle: saline 96 % of control | dose: 150.0 mg/kg/injection, schedule: Q01DX001 (ip), vehicle: saline 100 % of control

Nc1nc(NCCCc2ccccc2)c(N)c(=O)[nH]1
inactive: dose: 25.0 mg/kg/injection, schedule: Q01DX009 (ip), vehicle: saline with Tween-80 94 % of control | dose: 50.0 mg/kg/injection, schedule: Q01DX009 (ip), vehicle: saline with Tween-80 92 % of control | dose: 100.0 mg/kg/injection, schedule: Q01DX009 (ip), vehicle: saline with Tween-80 92 % of control and 97 % of control

O=C(O)CCCCNC(=O)c1ccc([N+](=O)[O-])cc1
inactive: dose: 100.0 mg/kg/injection, schedule: Q01DX001 (ip), vehicle: saline with Tween-80 99 % of control | dose: 200.0 mg/kg/injection, schedule: Q01DX001 (ip), vehicle: saline with Tween-80 94 % of control | dose: 400.0 mg/kg/injection, schedule: Q01DX001 (ip), vehicle: saline with Tween-80 87 % of control

O=C(O)CC(Br)C(=O)O (stereo not drawn)
inactive: dose: 100.0 mg/kg/injection, schedule: Q04DX003 (ip), vehicle: saline 98 % of control | dose: 200.0 mg/kg/injection, schedule: Q04DX003 (ip), vehicle: saline 102 % of control

NC(=O)CN1C(=O)C2C3CCC(C3)C2C1=O (stereo not drawn)
inactive: [11] 107 % of control | [12] 107 % of control | [13] 107 % of control

COc1ccc(C(=O)c2ccc(Cl)s2)cc1
inactive: dose: 100.0 mg/kg/injection, schedule: Q04DX003 (ip), vehicle: gum acacia 96 % of control | dose: 200.0 mg/kg/injection, schedule: Q04DX003 (ip), vehicle: gum acacia 91 % of control | dose: 400.0 mg/kg/injection, schedule: Q04DX003 (ip), vehicle: gum acacia 89 % of control

COc1cc(Br)c(C(C)CC(=O)O)cc1OC (stereo not drawn)
inactive: [11] 103 % of control | [12] 98 % of control | [13] 92 % of control

CCOc1ccc(NC(=S)NCCc2ccccc2)cc1
inactive: [5] 102 % of control | [6] 102 % of control | [7] 105 % of control

Clc1nc(Cl)c2c(n1)NCCN2
inactive: [4] 106 % of control | [5] 103 % of control

COc1ccc(/C=N/NC(=O)CNC(=O)NCc2ccccc2)cc1
inactive: [5] 90 % of control | [6] 93 % of control

CS(=O)(=O)C(=O)O
inactive: [14] 96 % of control | [15] 101 % of control | dose: 400.0 mg/kg/injection, schedule: Q01DX001 (ip), vehicle: saline 98 % of control

BrC1C(Br)C(Br)C2OC2C1Br (stereo not drawn)
inactive: [5] 96 % of control | [6] 102 % of control | [7] 98 % of control

COc1cc2c3cc1Oc1c(OC)c(OC)cc4c1C(Cc1ccc(OC(C)=O)c(c1)Oc1ccc(cc1)CC3N(C)CC2)N(C)CC4 (stereo not drawn)
inactive: [11] 108 % of control | [12] 101 % of control | [13] 103 % of control

COC(/C=N/O)c1ccccc1 (stereo not drawn)
inactive: dose: 50.0 mg/kg/injection, schedule: Q01DX009 (ip), vehicle: other 88 % of control | dose: 100.0 mg/kg/injection, schedule: Q01DX009 (ip), vehicle: other 88 % of control | dose: 200.0 mg/kg/injection, schedule: Q01DX009 (ip), vehicle: other 101 % of control

S=c1[nH]c2[nH]cnc(=S)c2[nH]1
inactive: [14] 97 % of control | [15] 97 % of control

CC1OC(n2cnc3c(N)nc(F)nc32)C(O)C1O (stereo not drawn)
inactive: dose: 37.5 mg/kg/injection, schedule: Q01DX001 (ip), vehicle: other 112 % of control

CC(=O)Nc1cc(Cl)cc(Cl)c1
inactive: [11] 100 % of control | [12] 102 % of control | [13] 96 % of control
